Data from publication PMC11474975, “Enzyme Dynamics Determine the Potency and Selectivity of Inhibitors Targeting Disease-Transmitting Mosquitoes” (ACS Infectious Diseases, 2024).
Read-outs that look alike come from different tables or passages of the source.

Columns and labels:
[1] = test system: AChE1 from Anopheles gambiae (AgAChE1); assay: AgAChE1 inhibition, IC50 (Ellman assay); assay type: biochemical; conditions: class from experimental IC50
[2] = test system: AChE1 from Anopheles gambiae (AgAChE1); conditions: taken from previous publications; cited from earlier work
hAChE [3] = conditions: taken from previous publications; cited from earlier work
mAChE [4] = target: T1, mAChE (Mus musculus, UniProt P21836); assay: mAChE inhibition, IC50 (Ellman assay); conditions: for S.R. (selectivity ratio) mAChE vs AgAChE1: IC50 mAChE / IC50 AgAChE1; for mAChE inhibitor class (Strong/Weak): class from experimental IC50
T1 sequence (P21836 32-614): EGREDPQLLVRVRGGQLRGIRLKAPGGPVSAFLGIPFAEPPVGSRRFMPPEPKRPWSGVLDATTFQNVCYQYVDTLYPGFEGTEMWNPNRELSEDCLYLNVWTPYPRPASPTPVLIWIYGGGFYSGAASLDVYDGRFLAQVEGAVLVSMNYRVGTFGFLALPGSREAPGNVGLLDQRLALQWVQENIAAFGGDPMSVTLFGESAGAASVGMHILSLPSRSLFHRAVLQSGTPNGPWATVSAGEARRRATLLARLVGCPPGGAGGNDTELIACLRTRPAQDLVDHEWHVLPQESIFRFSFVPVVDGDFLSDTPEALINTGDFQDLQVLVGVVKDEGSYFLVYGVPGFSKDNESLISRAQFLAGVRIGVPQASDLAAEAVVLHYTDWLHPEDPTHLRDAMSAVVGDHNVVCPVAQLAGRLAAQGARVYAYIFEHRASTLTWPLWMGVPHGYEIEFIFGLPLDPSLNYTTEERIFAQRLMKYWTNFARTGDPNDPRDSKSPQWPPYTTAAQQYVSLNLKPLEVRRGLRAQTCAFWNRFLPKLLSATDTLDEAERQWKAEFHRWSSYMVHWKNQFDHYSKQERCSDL
Protocol: Dilution series of eight concentrations were prepared (0.001–1000 and 0.1–1000 μM, respectively). Enzymatic activity was measured using the Ellman assay (adapted to a 96-well format) with secreted nonpurified protein in growth medium. A QIAgility robotic benchtop instrument (Qiagen) was used for automatic liquid handling when setting up assay plates. The assay was then performed at 30 °C in a final volume of 200 mL 0.1 M phosphate buffer (pH 7.4) containing 0.2 mM 5,5′-thiobis(2-nitrobenzoic acid) and 1 mM acetylcholine iodide. Changes in the wells’ absorbance at 412 nm were recorded over 60 s using a FlexStation 3 Multi-Mode Microplate Reader (Molecular Devices) to monitor the enzymatic reaction. Eight positive controls of uninhibited enzyme were assumed to represent 100% activity and used to determine the average slope. […] Nonlinear regression (curve fitting) in GraphPad Prism[54] was used to calculate IC50 values. The log[inhibitor] vs response variable slope equation was fitted using three parameters. Three independent replicates were used for the IC50 determination.

hAChE [5] = assay: hAChE inhibition, IC50; assay type: biochemical, Homo sapiens
mAChE [6] = target: T1, mAChE; set-up: made in house; method as in PMID 30339371, PMID 27598521, PMID 22140425; conditions: taken from previous publications; cited from earlier work

Structure (SMILES)	AgAChE1 inhibitor class (Strong/Weak) [1]	IC50 [2] [µM]	IC50 (hAChE [3]) [µM]	IC50 (mAChE [4]) [µM]	S.R. (selectivity ratio) mAChE vs AgAChE1 (mAChE [4])	mAChE inhibitor class (Strong/Weak) (mAChE [4])	S.R. (selectivity ratio) hAChE vs AgAChE1 (hAChE [5])	IC50 (mAChE [6]) [µM]
COc1ccccc1NC(=S)NCCN(C)C [AL237]	Weak (strong and weak inhibitors of AgAChE1 from both classes (IC50 < 1 μM and IC50 > 5 μM, respectively)	7.1	120	217	31	Weak (strong and weak inhibitors of AgAChE1 from both classes (IC50 < 1 μM and IC50 > 5 μM, respectively)	17	–
O=C(COc1ccc(Cl)cc1Cl)Nc1ccc(CN2CCCCC2)cc1 [AL137]	Strong (strong and weak inhibitors of AgAChE1 from both classes (IC50 < 1 μM and IC50 > 5 μM, respectively)	0.26	–	–	–	–	–	–
COc1ccc(NC(=S)NCCN2CCC(C)CC2)cc1Cl [AL201]	Strong (strong and weak inhibitors of AgAChE1 from both classes (IC50 < 1 μM and IC50 > 5 μM, respectively)	0.96	12	26	27	Weak (strong and weak inhibitors of AgAChE1 from both classes (IC50 < 1 μM and IC50 > 5 μM, respectively)	13	–
CCN1CCN(C2CCN(C(=O)COc3ccc(-c4ccc(OC)cc4)cc3)CC2)CC1 [AL284]	Strong (strong and weak inhibitors of AgAChE1 from both classes (IC50 < 1 μM and IC50 > 5 μM, respectively)	0.4	18	–	73	Weak (strong and weak inhibitors of AgAChE1 from both classes (IC50 < 1 μM and IC50 > 5 μM, respectively)	45	29
O=C(COc1ccc(-c2ccccc2)cc1)NCCCN1CCCCC1 [AL264]	Weak (strong and weak inhibitors of AgAChE1 from both classes (IC50 < 1 μM and IC50 > 5 μM, respectively)	10	57	–	6	Weak (strong and weak inhibitors of AgAChE1 from both classes (IC50 < 1 μM and IC50 > 5 μM, respectively)	6	61
